Experiments:
[1] = molecular target: T1, Cannabinoid receptor 2 (Homo sapiens, UniProt P34972); assay: Displacement of [3H]CP55940 from human CB2 receptor expressed in CHO-K1 cell membrane by competitive displacement assay; format: cell membranes
[2] = molecular target: T2, Cannabinoid receptor 1 (Homo sapiens, UniProt P21554); assay: Displacement of [3H]CP55940 from human CB1 receptor expressed in CHO-K1 cell membrane by competitive displacement assay; format: cell membranes
[3] = organism: Homo sapiens; assay: Selectivity ratio of Ki for human CB1 receptor to Ki for human CB2 receptor
[4] = molecular target: T1, Cannabinoid receptor 2; assay: Agonist activity at human CB2 receptor expressed in CHO-K1 cells assessed as inhibition of forskolin-stimulated cAMP production; format: functional, cell-based
[5] = molecular target: T2, Cannabinoid receptor 1; assay: Agonist activity at human CB1 receptor expressed in CHO-K1 cells assessed as inhibition of forskolin-stimulated cAMP production; format: functional, cell-based
[6] = organism: Homo sapiens; assay: Selectivity ratio of EC50 for human CB1 receptor to EC50 for human CB2 receptor
[7] = Antioxidant activity assessed as inhibition of lipid peroxidation; format: physicochemical

T2 sequence (P21554 whole entry): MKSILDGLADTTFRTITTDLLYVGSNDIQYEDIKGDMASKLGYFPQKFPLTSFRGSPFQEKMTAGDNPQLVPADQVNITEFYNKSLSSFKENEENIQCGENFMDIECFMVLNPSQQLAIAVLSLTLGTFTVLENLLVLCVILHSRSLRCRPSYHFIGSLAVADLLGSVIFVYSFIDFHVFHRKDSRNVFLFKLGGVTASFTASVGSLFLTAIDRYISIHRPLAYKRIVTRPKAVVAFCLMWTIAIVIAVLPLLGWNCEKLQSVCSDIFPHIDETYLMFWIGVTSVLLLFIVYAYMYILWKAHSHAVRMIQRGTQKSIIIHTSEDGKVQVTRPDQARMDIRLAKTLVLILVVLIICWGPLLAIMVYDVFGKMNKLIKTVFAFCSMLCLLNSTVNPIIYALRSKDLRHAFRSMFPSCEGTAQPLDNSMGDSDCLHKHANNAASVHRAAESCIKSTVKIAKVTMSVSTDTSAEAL
T1 sequence (P34972 whole entry): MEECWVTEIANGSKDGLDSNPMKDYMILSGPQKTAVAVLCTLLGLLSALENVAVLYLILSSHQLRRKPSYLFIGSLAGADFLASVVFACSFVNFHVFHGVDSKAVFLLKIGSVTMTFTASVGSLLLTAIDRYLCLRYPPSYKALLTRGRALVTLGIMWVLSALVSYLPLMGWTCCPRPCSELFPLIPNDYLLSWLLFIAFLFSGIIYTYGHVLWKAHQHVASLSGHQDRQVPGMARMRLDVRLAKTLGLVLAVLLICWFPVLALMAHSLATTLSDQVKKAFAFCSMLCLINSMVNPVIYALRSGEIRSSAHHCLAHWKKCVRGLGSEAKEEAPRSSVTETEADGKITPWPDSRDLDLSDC

| SMILES | Ki [1] | Ki ([2]; cho-k1) | Ki ([2]; read-out: Ki) | Selectivity ratio [3] | EC50 [4] | EC50 [5] | Selectivity ratio [6] | IC50 [7] |
| --- | --- | --- | --- | --- | --- | --- | --- | --- |
| CN(C)Cc1nc(-c2cc(C(C)(C)C)c(O)c(C(C)(C)C)c2)cs1 | 6240 nM | Not Active | – | – | – | – | – | – |
| CN1CCCCC1Cn1cc(C(=O)c2cc([N+](=O)[O-])ccc2I)c2ccccc21 (stereo not given) | 21.8 nM | – | 2080 nM | 95 | 16.4 nM | 1040 nM | 63 | – |
| CN(C)C1(c2nc(-c3cc(C(C)(C)C)c(O)c(C(C)(C)C)c3)cs2)CCSCC1 | 81.7 nM | – | 2340 nM | 29 | 59.1 nM | 2380 nM | 40 | – |
| CC(C)(C)c1cc(-c2csc(C3(N4CCOCC4)CCOCC3)n2)cc(C(C)(C)C)c1O | 177 nM | Not Active | – | – | – | – | – | – |
| CC(C)(C)c1cc(-c2csc(C3(N4CCCCC4)CCOCC3)n2)cc(C(C)(C)C)c1O | 49.7 nM | – | 2170 nM | 43 | 40 nM | 2260 nM | 56 | – |
| CCN(CC)C1(c2nc(-c3cc(C(C)(C)C)c(O)c(C(C)(C)C)c3)cs2)CCOCC1 | 77.4 nM | – | 3300 nM | 43 | 72 nM | 4040 nM | 56 | – |
| CN(C)C1(c2nc(-c3cc(C(C)(C)C)c(O)c(C(C)(C)C)c3)cs2)CCOCC1 | 29.4 nM | – | 857 nM | 30 | 42 nM | 2670 nM | 64 | 500 nM |
| CNC1(c2nc(-c3cc(C(C)(C)C)c(O)c(C(C)(C)C)c3)cs2)CCOCC1 | 144 nM | – | 2270 nM | 16 | – | – | – | – |
| CC(C)(C)c1cc(-c2csc(C3(N)CCOCC3)n2)cc(C(C)(C)C)c1O | 2700 nM | – | 6960 nM | 2.6 | – | – | – | – |
| CN(C)C1(c2nc(-c3cc(C(C)(C)C)c(O)c(C(C)(C)C)c3)co2)CCOCC1 | 51.6 nM | – | 817 nM | 16 | 43.6 nM | 1400 nM | 32 | – |
| CN(C)C1(c2nc(-c3cc(C(C)(C)C)cc(C(C)(C)C)c3)cs2)CCOCC1 | 127 nM | – | 4710 nM | 37 | – | – | – | – |
